Test results published in paper PMC6522510 (Nature Communications, 2019).
Read-outs that look alike come from different tables or passages of the source.

What was measured:
U937 [1] = assay: cells; parameters: species or system AML cell lines (8); Secondary HTS, 10-point dose-response in triplicate, Cell Titer Glo viability, four-parameter fit EC50; details: Homo sapiens, U-937, 72 h, read-out: U937
MV4-11 [2] = assay: cells; parameters: species or system AML cell lines (8); Secondary HTS, 10-point dose-response in triplicate, Cell Titer Glo viability, four-parameter fit EC50; details: Homo sapiens, MV4-11, 72 h, read-out: MV4-11
CHRF288-11 [3] = assay: Secondary dose-response HTS, Cell Titer Glo; assay type: cell-based, human; details: Homo sapiens, HTS; secondary high-throughput screen; CHRF288-11; read-out: average effective concentration, CHRF288-11
ML2 = assay: Secondary dose-response HTS, Cell Titer Glo; assay type: cell-based, human; details: Homo sapiens
CMK [4] = assay: cells; parameters: species or system AML cell lines (8); Secondary HTS, 10-point dose-response in triplicate, Cell Titer Glo viability, four-parameter fit EC50; details: Homo sapiens, CMK, 72 h, read-out: CMK
M07e = assay: cells; parameters: species or system AML cell lines (8); Secondary HTS, 10-point dose-response in triplicate, Cell Titer Glo viability, four-parameter fit EC50; details: M-07e, 72 h, read-out: M07e
CMS = assay: cells; parameters: species or system AML cell lines (8); Secondary HTS, 10-point dose-response in triplicate, Cell Titer Glo viability, four-parameter fit EC50; details: 72 h, read-out: CMS
MOLM-13 [5] = assay: cells; parameters: species or system AML cell lines (8); Secondary HTS, 10-point dose-response in triplicate, Cell Titer Glo viability, four-parameter fit EC50; details: Homo sapiens, MOLM-13, 72 h, read-out: MOLM-13
MOLM-13 [6] = assay: Secondary dose-response HTS, Cell Titer Glo; assay type: cell-based, human; details: Homo sapiens; secondary high-throughput screen; MOLM-13; read-out: average effective concentration, MOLM-13
MV4-11 [7] = assay: Secondary dose-response HTS, Cell Titer Glo; assay type: cell-based, human; details: Homo sapiens; secondary high-throughput screen; MV4-11; read-out: average effective concentration, MV4-11
U937 [8] = assay: Secondary dose-response HTS, Cell Titer Glo; assay type: cell-based, human; details: Homo sapiens
CMK [9] = assay: Secondary dose-response HTS, Cell Titer Glo; assay type: cell-based, human; details: Homo sapiens, CMK, read-out: average effective concentration, CMK
CHRF288-11 [10] = assay: cells; parameters: species or system AML cell lines (8); Secondary HTS, 10-point dose-response in triplicate, Cell Titer Glo viability, four-parameter fit EC50; details: 72 h, read-out: CHRF288-11
[11] = secondary high-throughput screen, ML-2, read-out: average effective concentration, ML-2
[12] = U-937, secondary high-throughput screen, U937, read-out: average effective concentration, U937

| EC50 (U937 [1]) [µM] | EC50 (MV4-11 [2]) [µM] | EC50 (MOLM-13 [5]) [µM] | EC50 (MOLM-13 [6]) [µM] | EC50 (MV4-11 [7]) [µM] | EC50 (U937 [8]; [12]) [µM] | EC50 (U937 [8]; U-937, read-out: average effective concentration, U937) [µM] | Compound | EC50 (CHRF288-11 [3]) [µM] | EC50 (ML2; [11]) [µM] | EC50 (CMK [4]) [µM] | EC50 (M07e) [µM] | EC50 (CMS) [µM] | EC50 (CMK [9]) [µM] | EC50 (CHRF288-11 [10]) [µM] | EC50 (ML2; ML-2, read-out: average effective concentration, ML-2) [µM] | EC50 (CMK [9]; secondary high-throughput screen) [µM] |
| --- | --- | --- | --- | --- | --- | --- | --- | --- | --- | --- | --- | --- | --- | --- | --- | --- |
| > 10 | > 10 | > 10 | – | – | – | – | O=C(c1cc(Cc2n[nH]c(=O)c3ccccc23)ccc1F)N1CCN(C(=O)C2CC2)CC1 [OLAPARIB] | > 10 | > 10 | > 10 | > 10 | > 10 | – | – | – | – |
| > 10 | – | – | 0.048 | 0.035 | – | – | Nc1nc2[nH]cc(CCc3ccc(C(=O)N[C@@H](CCC(=O)O)C(=O)O)cc3)c2c(=O)[nH]1 [PEMETREXED] | 0.1 | 0.066 | > 10 | > 10 | > 10 | – | – | – | – |
| – | – | – | 5.3 | 7.6 | 8.5 | – | O=C(O)C[C@H](O)C[C@H](O)/C=C/c1c(C2CC2)nc2ccccc2c1-c1ccc(F)cc1 [PITAVASTATIN] | 2.2 | 5.1 | > 10 | > 10 | > 10 | – | – | – | – |
| – | > 10 | – | > 10 | – | – | > 10 | COc1cc(/C=C/c2ccc(O)cc2)cc(OC)c1 [PTEROSTILBENE] | – | – | – | > 10 | > 10 | 1.4 | > 10 | > 10 | – |
| 0.0124 | – | – | – | – | – | – | Cc1[nH]c2ccccc2c1CCNCc1ccc(/C=C/C(=O)NO)cc1 [Panobinostat] | – | – | – | – | – | – | – | – | – |
| > 10 | – | > 10 | – | 6.3 | – | – | O=C(NC[C@H](O)CO)c1ccncc1Nc1ccc(I)cc1F [Pimasertib] | – | 0.001 | – | > 10 | > 10 | – | > 10 | – | > 10 |
| > 10 | – | – | 0.068 | 0.027 | – | – | Cc1nc2ccc(CN(C)c3ccc(C(=O)N[C@@H](CCC(=O)O)C(=O)O)s3)cc2c(=O)[nH]1 [RALTITREXED] | 0.095 | 0.1 | > 10 | > 10 | > 10 | – | – | – | – |
| > 10 | – | – | – | – | – | – | CCOc1cc(C(C)(C)C)ccc1C1=N[C@@](C)(c2ccc(Cl)cc2)[C@@](C)(c2ccc(Cl)cc2)N1C(=O)N1CCN(CCCS(C)(=O)=O)CC1 [RG7112] | – | – | > 10 | – | > 10 | – | > 10 | – | – |
| > 10 | > 10 | – | > 10 | – | – | – | O=C(O)c1ccc2c(c1)nc(Nc1cccc(Cl)c1)c1ccncc12 [SILMITASERTIB] | – | > 10 | > 10 | > 10 | > 10 | – | > 10 | – | – |
| > 10 | > 10 | – | > 10 | – | – | – | CCC(C)(C)C(=O)O[C@H]1C[C@@H](C)C=C2C=C[C@H](C)[C@H](CC[C@@H]3C[C@@H](O)CC(=O)O3)[C@H]21 [SIMVASTATIN] | 4.1 | > 10 | > 10 | > 10 | > 10 | – | – | – | – |
| – | 0.0073 | – | – | – | – | – | CNC(=O)c1cc(Oc2ccc(NC(=O)Nc3ccc(Cl)c(C(F)(F)F)c3)cc2)ccn1 [Sorafenib] | – | – | > 10 | > 10 | > 10 | – | > 10 | – | – |
| – | > 10 | – | > 10 | – | > 10 | – | COc1ccc(C[C@@H](C)[C@@H](C)Cc2ccc(OC)c(OC)c2)cc1OC [TERAMEPROCOL] | – | > 10 | > 10 | > 10 | > 10 | – | > 10 | – | – |
| – | – | 0.0077 | – | – | – | – | CC[C@@H]1C(=O)N(C)c2cnc(Nc3ccc(C(=O)N[C@H]4CC[C@H](N5CCN(CC6CC6)CC5)CC4)cc3OC)nc2N1C(C)C [Volasertib] | – | – | – | > 10 | – | – | – | – | – |
| > 10 | > 10 | – | 1.1 | – | – | – | O=c1ncccn1[C@@H]1O[C@H](CO)[C@@H](O)[C@H]1O [ZEBULARINE] | 8.9 | 0.73 | > 10 | > 10 | > 10 | – | – | – | – |
| – | – | – | – | – | – | – | CCN(CCCOc1ccc2c(Nc3cc(CC(=O)Nc4cccc(F)c4)n[nH]3)ncnc2c1)CCOP(=O)(O)O [barasertib] | – | – | – | > 10 | > 10 | – | > 10 | – | – |

| Compound | EC50 (U937 [1]) [µM] | EC50 (MV4-11 [2]) [µM] | EC50 (MOLM-13 [5]) [µM] | EC50 (MOLM-13 [6]) [µM] | EC50 (MV4-11 [7]) [µM] | EC50 (U937 [8]; [12]) [µM] | EC50 (U937 [8]; U-937, read-out: average effective concentration, U937) [µM] | EC50 (CHRF288-11 [3]) [µM] | EC50 (ML2; [11]) [µM] | EC50 (CMK [4]) [µM] | EC50 (M07e) [µM] | EC50 (CMS) [µM] | EC50 (CMK [9]) [µM] | EC50 (CHRF288-11 [10]) [µM] | EC50 (ML2; ML-2, read-out: average effective concentration, ML-2) [µM] | EC50 (CMK [9]; secondary high-throughput screen) [µM] |
| --- | --- | --- | --- | --- | --- | --- | --- | --- | --- | --- | --- | --- | --- | --- | --- | --- |
| O=C(NOC[C@H](O)CO)c1ccc(F)c(F)c1Nc1ccc(I)cc1F [PD-0325901] | > 10 | > 10 | – | 0.92 | – | – | – | > 10 | 0.001 | > 10 | > 10 | > 10 | – | – | – | – |
